What was measured:
DNA = assay: Autoimmune reactivity assessment (anti-DNA antibody response); format: in vivo, mice
Description: In each set of experiments, groups of 5 mice were primed with an environmental antigen phthalate (Lim and Ghosh, Immunology, 110:482-492, 2003) as a conjugate (mg/ml) with keyhole limpet hemocyanin (KLH) in different adjuvants as shown in FIG. 5.

phthalate = assay: Anti-phthalate antibody response by ELISA on phthalate-BSA coated plates; format: in vivo; details: BALB/c mice primed intraperitoneally with phthalate-KLH emulsified in adjuvant, boosters at 10-day intervals, FIG. 6
Protocol: Experimental BALB/c mice (n=6) were grouped and primed intraperitoneally with phthalate-KLH conjugates emulsified in each adjuvant. Control groups of mice were immunized with phosphate buffered saline (PBS). Boosters were given at 10-day intervals. The mice were bled through retro-orbital veins five days after each immunization. (reference describing this type of experiments: So-Yon Lim and Swapan K. Ghosh, Immunology, 110:482-492, 2003)
ELISA was performed to assess anti-phthalate humoral responses on phthalate-BSA coated plates.

BALB/c mice [1] = assay: Toxicity in terms of splenomegaly and local granuloma; format: in vivo
Protocol: with adjuvants: A, (PBS); B, […]; C, Incomplete Freund's adjuvant (IFA); D, phytol; E, Complete Freund's adjuvant (CFA); and F, reduced phytol (phytanol).
The efficacy and side effects (such as toxicity, carcinogenic properties, and autoimmunogenic properties) of phytol and reduced phytol or phytanol (H-phytol) as adjuvants were compared with those of other known adjuvants that serve as the gold standard. Groups of 8-12 week old and gender matched BALB/c mice (n=21) were injected intraperitoneally with phytol (25-50 μl=20-40 mg/ml injected vaccine formulation) to determine toxicity. Similar studies were done with reduced phytol (phytanol) using 11 BALB/c mice. […].

2C3 B-cell lymphoma = assay: Induction of tumor-specific cytotoxic T cells (51Cr-release CTL assay); format: in vivo; details: BALB/c mice, intraperitoneal adjuvant, live 2C3 tumor challenge, FIG. 8
Protocol: A number of mice (BALB/c mice) were divided into four groups of six mice each. Each group was treated with intraperitoneal injections of one of […] adjuvant preparations. The adjuvant preparations were selected from IFA, phytol, and phytanol. A control group was injected intraperitoneally with PBS. Five days after the initial injections, each of the mice was injected with a live tumor challenge (5×10^6 of 2C3 B-cell lymphoma). Splenocytes were obtained form the tumor-challenged mice at the eighth day after the initial injections. The collected splenocytes were stimulated with killed 2C3 cells in vitro for five days. Effector cells were harvested from this preparation after five days of incubation. The effector cells were used in the 51Cr-release cytotoxic T lymphocyte (CTL) assay according to the procedure published in Chakrabarti D. and Ghosh S. K.: Cellular Immunology 144:445-464, 1996; Santra S. and Ghosh S. K.: cancer Immunol. Immunotherpy, 44:291-300, 1997; Laxmanan S., Stuart G. W. and Ghosh S. K. Ghosh, Cancer Immunol. Immunotherapy, 50:437-444, 2001; So-Yon Lim and Swapan K. Ghosh, Immunology, 110:482-492, 2003.

BALB/c mice [2] = assay: Toxicity (LD50) after intraperitoneal injection; format: in vivo; details: mg/ml injected vaccine formulation
Protocol: The efficacy and side effects (such as toxicity, carcinogenic properties, and autoimmunogenic properties) of phytol and reduced phytol or phytanol (H-phytol) as adjuvants were compared with those of other known adjuvants that serve as the gold standard. Groups of 8-12 week old and gender matched BALB/c mice (n=21) were injected intraperitoneally with phytol (25-50 μl=20-40 mg/ml injected vaccine formulation) to determine toxicity. Similar studies were done with reduced phytol (phytanol) using 11 BALB/c mice. LD50 for phytol is 40 mg/ml and for phytanol >40 mg/ml. For comparison, equivalent concentrations/volumes of other Freund's adjuvants, a mineral oil pristane and a control (phosphate buffered saline) were tested for toxicity in terms of splenomegaly and local granuloma.

CC(C)CCC[C@@H](C)CCC[C@@H](C)CCCC(C)CCO (stereo partly drawn) [phytanol, 3,7,11,15-tetramethyl-1-hexadecanol]
anti-DNA response (autoimmune response) (DNA; mouse, in vivo): statistically insignificant anti-DNA response
anti-phthalate humoral response (phthalate): better than commonly used CFA/IFA and is as good as commercially available Ribi Adjuvant system (RAS)
granuloma (BALB/c mice [1]; mouse, in vivo): no granuloma
splenomegaly (BALB/c mice [1]; mouse, in vivo): none
induction of tumor-specific killer T cells (2C3 B-cell lymphoma): induction of tumor-specific killer T cells
LD50 (BALB/c mice [2]): > 40 mg/mL

C/C(=C\CO)CCC[C@H](C)CCC[C@H](C)CCCC(C)C [phytol]
anti-DNA response (autoimmune response) (DNA; mice primed with phthalate-KLH in the adjuvant, FIG. 5): statistically insignificant anti-DNA response
granuloma (BALB/c mice [1]; BALB/c mice, local granuloma): milder than CFA
splenomegaly (BALB/c mice [1]; BALB/c mice, spleens, FIGS. 3A-3F): comparable splenomegaly
splenomegaly (BALB/c mice [1]; BALB/c mice, spleens, FIGS. 3A-3F, listed as Phytol): milder than CFA
induction of tumor-specific killer T cells (2C3 B-cell lymphoma): induction of tumor-specific killer T cells
LD50 (BALB/c mice [2]): 40 mg/mL
